Source: patent publication US20070004767A1, “Methods for treating neurofibromatosis 1” (priority 2005, published 2007)

How the values were obtained:
[1] = system: wild-type astrocytes; test: Astrocyte proliferation by 3[H]-thymidine incorporation, wild-type astrocytes
Experimental: (§3) Murine neocortical astroglial cultures, containing >95% GFAP positive cells (astrocytes), were generated from postnatal day 2 Nf1^flox/flox and (LSL)-K-RAS^G12D; GFAPCre transgenic pups as previously described. […] Astrocyte proliferation assays were performed by ^3[H]-thymidine incorporation.
(§4) To determine whether the growth advantage of Nf1-deficient astrocytes reflected increased mTOR signaling, Nf1−/− astrocyte proliferation after rapamycin treatment was measured.

[2] = system: Nf1−/− astrocytes; test: Astrocyte proliferation by 3[H]-thymidine incorporation, Nf1−/− astrocytes
Experimental: as §3, §4

[3] = molecular target: 12 kDa FK506 binding protein (FKBP12) (Homo sapiens, UniProt P62942); conditions: cited from earlier work
[4] = system: astrocytes; conditions: mouse, 1 μM
Experimental: as §4

[5] = system: ribosomal S6 protein phosphorylation in Nf1−/− astrocytes; test: S6 phosphorylation (phospho-S6 Ser240/244 Western blot) in Nf1−/− astrocytes; assay type: cell-based, mouse
Experimental: (§1) Western blot analysis was performed as described previously in, for example, Dasgupta B et al., The Neurofibromatosis 1 Gene Product Neurofibromin Regulates Pituitary Adenylate Cyclase-Activating Polypeptide-Mediated Signaling in Astrocytes, J. NEUROSCI. 23:8949-8954 (2003). The following antibodies were used: anti-NF1GRP, nucleolin, and cyclin D1 (Santa Cruz Biotechnology, Santa Cruz, Calif.), phospho-S6 (Serine-240/244; Cell Signaling Technology, Beverley, Mass.), α-tubulin and fibrillarin (Sigma, St. Louis, Mo.), anti-T7 (Novagen, Madison, Wis.), anti-KT3 (Babco, Richmond, Calif.), NPM (Zymed, San Francisco, Calif.), and L7 (Novus Biologicals, Littleton, Colo.).
(§2) One of the downstream targets of activated RAS is P13-Kinase. See Rodriguez-Viciana P, et al., Phosphatidylinositol-3-OH Kinase as a Direct Target of Ras, NATURE 370:527-532 (1994). In this regard, loss of neurofibromin expression is associated with activation of the PI3K-AKT signaling pathway in human NF1-associated pilocytic astrocytoma and in Nf1−/− mouse myeloid cells. See Lau N, et al., Loss of Neurofibromin is Associated with Activation of Ras/MAPK and PI3K/AKT Signalling in a Neurofibromatosis 1 Astrocytoma, J NEUROPATHOL. EXP. NEUROL. 59:759-767 (2000); and Donovan S, et al., Hyperactivation of Protein Kinase B and Erk Have Discrete Effects on Survival, Proliferation, and Cytokine Expression in Nf1-Deficient Myeloid Cells, CANCER CELL 2:507-514 (2002). Several studies have shown that activation of the PI3K-AKT leads to activation of the mammalian target of rapamycin (mTOR), which leads to phosphorylation of S6 kinase and activation of ribosomal S6. See Chung J, et al., PDGF- and Insulin-Dependent pp70S6k Activation Mediated by Phosphatidylinositol-3-OH Kinase, NATURE 370:71-75 (1994); and Gingras A C, et al., Regulation of Translation Initiation by FRAP/mTOR, GENES DEV. […] To determine whether S6 hyperactivation in Nf1−/− astrocytes is downstream of PI3K and mTOR, S6 phosphorylation in both Nf1+/+ and Nf1−/− astrocytes in presence of a PI3K inhibitor (LY294002) and an mTOR inhibitor (rapamycin) was measured. […]

[6] = molecular target: FKBP-rapamycin binding domain (FRB) of mammalian target of rapamycin (mTOR) (Homo sapiens, UniProt P42345+P62942); conditions: cited from earlier work
[7] = system: ribosomal S6 protein phosphorylation in wild-type (Nf1+/+) astrocytes; test: S6 phosphorylation (phospho-S6 Ser240/244 Western blot) in wild-type astrocytes; assay type: cell-based, mouse; conditions: for S6 phosphorylation: wild-type astrocytes
Experimental: as §1, §2

[8] = control astrocytes, FIG. 6 legend

FKBP-rapamycin binding domain (FRB) of mammalian target of rapamycin (mTOR), sequence (P42345 2015-2114, species assumed): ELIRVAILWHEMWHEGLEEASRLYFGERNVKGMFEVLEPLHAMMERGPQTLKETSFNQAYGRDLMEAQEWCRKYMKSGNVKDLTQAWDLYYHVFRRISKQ
FKBP-rapamycin binding domain (FRB) of mammalian target of rapamycin (mTOR), sequence (P62942 2-108, species assumed): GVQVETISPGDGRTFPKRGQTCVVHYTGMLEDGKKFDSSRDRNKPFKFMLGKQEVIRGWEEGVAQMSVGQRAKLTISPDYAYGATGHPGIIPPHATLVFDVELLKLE
12 kDa FK506 binding protein (FKBP12), sequence (P62942 whole entry, species assumed): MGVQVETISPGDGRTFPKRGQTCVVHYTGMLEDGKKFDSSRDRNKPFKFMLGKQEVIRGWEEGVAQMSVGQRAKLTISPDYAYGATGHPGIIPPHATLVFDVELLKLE

CO[C@H]1C[C@@H]2CC[C@@H](C)[C@@](O)(O2)C(=O)C(=O)N2CCCC[C@H]2C(=O)O[C@H]([C@H](C)C[C@@H]2CC[C@@H](O)[C@H](OC)C2)CC(=O)[C@H](C)/C=C(\C)[C@@H](O)[C@@H](OC)C(=O)[C@H](C)C[C@H](C)/C=C/C=C/C=C/1C [rapamycin, Rapamycin]
effect on cell proliferation (growth) in control astrocytes [1, 8]: little or no effect
reduction of basal proliferation ([1]; wild-type astrocytes, 1 μM): 16±4%
reduction of proliferation ([2]; 1 μM): 55±9.5%
inhibition of cell proliferation (growth), dose dependence ([2]; FIG. 6 legend): dose-dependent inhibition
binding affinity to FKBP12 [3]: high affinity
cell survival (Trypan blue exclusion) [4]: greater than 98%
S6 phosphorylation ([5]; 1 μM, FIG. 6 inset): significantly inhibited
S6 phosphorylation ([5]; 5 μM, FIG. 2C): completely inhibited
inhibition of ribosomal S6 protein phosphorylation, dose dependence ([5]; FIG. 6 legend): dose-dependent inhibition
binding affinity to FRB domain (E2015 to Q2114) of mTOR [6]: high affinity
effect on ribosomal S6 protein phosphorylation in control astrocytes [7, 8]: little or no effect
S6 phosphorylation ([7]; 1 μM, FIG. 6 inset): no effect
S6 phosphorylation ([7]; 5 μM, FIG. 2C): completely inhibited
